Assay results published in patent publication US20050009776A1, “Method of treating atrial fibrillation or atrial flutter” (Aderis Pharmaceuticals, Inc., priority 2003, published 2005).

How the values were obtained:
[1] = test system: A1 receptor / A3 receptor; assay: Affinity for adenosine A1 receptor relative to A3 receptor; format: binding
Description: (§1) Therefore, DTI-0009 may be capable of terminating episodes of supraventricular arrythymias at doses that have little effect on normal heart rate or blood pressure.

AV nodal conduction = assay: Slowing of AV nodal conduction versus heart rate reduction; format: in vivo; conditions: guinea pig
Description: as §1

[2] = Example 2: safety (adverse events, blood pressure, clinical laboratory values); format: in vivo, human; conditions: for Diastolic BP Change from Baseline Post-treatment / Diastolic BP Change from Baseline Treatment / Systolic BP Change from Baseline Post-treatment / Systolic BP Change from Baseline Treatment: mean ± SD
Experimental: Each patient received 1 of 6 doses of DTI-0009 (0.25, 1.0, 2.5, 4.0, 10.0, or 25.0 μg/kg) diluted in normal saline or normal saline only (control). Study drug was administered as a 30-minute i.v. infusion at a rate of 1 mL/minute. Patients were enrolled in sequential dose groups, beginning with the lowest active dose group and continuing in increasing dose order; the final group received normal saline. The decision to proceed to the next highest dose group was based on the safety response in the previous dose group.
Electrophysiologic (EP), electrocardiogram (ECG), blood pressure measurements, and blood collection for clinical laboratory measurements were performed at baseline (−10 to 0 minutes), during treatment (between 20 and 30 minutes), and at 10 minutes post-treatment.
ECG measurements included PR interval, QRS complex duration, and QT interval. Efficacy was based on changes in EP and ECG parameters from baseline to the treatment period and to post treatment. Safety was based on the incidence of adverse events, blood pressure measurements, and clinical laboratory values.
The incidence of adverse events, blood pressure measurements, and clinical laboratory results were summarized by dose group. Adverse events were coded using the medical dictionary for regulatory activities (MedDRA version 3.0). Safety analyses included all patients who received any duration of study drug infusion.

CCNC(=O)[C@H]1O[C@@H](n2cnc3c(NC4CCCC4)ncnc32)[C@H](O)[C@@H]1O [DTI-0009, N^6-cyclopentyl-5′-(N-ethyl)carboxamidoadenosine]
affinity for the A1 receptor higher than for the A3 receptor [1]: 11 fold | potency at slowing AV nodal conduction versus reducing heart rate (AV nodal conduction; in vivo): three times more potent at slowing AV nodal conduction than at reducing heart rate | rate dependence of slowing AV nodal conduction (AV nodal conduction; rapid atrial pacing vs normal sinus rhythm): more potent at slowing AV nodal conduction during periods of rapid atrial pacing than during normal sinus rhythm | Adverse Events Related to Study Drug: Cardiac Disorders (all) ([2]; 0.25 μg/kg (n = 10)): 0 | Adverse Events Related to Study Drug: General Disorders (all) ([2]; 0.25 μg/kg (n = 10)): 0 | Incidence of Adverse Events Related to Study Drug ([2]; 0.25 μg/kg (n = 10)): 0 | Incidence of Adverse Events: Any Adverse Event ([2]; 0.25 μg/kg (n = 10)): 3 (30%) | Incidence of Adverse Events: Atrial fibrillation ([2]; 0.25 μg/kg (n = 10)): 1 (10%) | Incidence of Adverse Events: Atrial flutter ([2]; 0.25 μg/kg (n = 10)): 1 (10%) | Incidence of Adverse Events: Atrial tachycardia ([2]; 0.25 μg/kg (n = 10)): 0 | Incidence of Adverse Events: Bradycardia ([2]; 0.25 μg/kg (n = 10)): 0 | Incidence of Adverse Events: Cardiac Disorders ([2]; 0.25 μg/kg (n = 10)): 2 (20%) | Incidence of Adverse Events: Chest pain/tightness ([2]; 0.25 μg/kg (n = 10)): 0 | Incidence of Adverse Events: Conduction disorders ([2]; 0.25 μg/kg (n = 10)): 0 | Incidence of Adverse Events: General Disorders ([2]; 0.25 μg/kg (n = 10)): 0 | Incidence of Adverse Events: Groin pain/swelling ([2]; 0.25 μg/kg (n = 10)): 0 | Diastolic BP Change from Baseline Post-treatment ([2]; 0.25 μg/kg): 5.2 ± 9.7 mmHg | Diastolic BP Change from Baseline Treatment ([2]; 0.25 μg/kg): 2.5 ± 8.1 mmHg | Systolic BP Change from Baseline Post-treatment ([2]; 0.25 μg/kg): 5.8 ± 9.5 mmHg | Systolic BP Change from Baseline Treatment ([2]; 0.25 μg/kg): 8.8 ± 8.2 mmHg | Adverse Events Related to Study Drug: Cardiac Disorders (all) ([2]; 1.0 μg/kg (n = 10)): 1 (10%) | Adverse Events Related to Study Drug: General Disorders (all) ([2]; 1.0 μg/kg (n = 10)): 0 | Incidence of Adverse Events Related to Study Drug ([2]; 1.0 μg/kg (n = 10)): 1 (10%) | Incidence of Adverse Events: Any Adverse Event ([2]; 1.0 μg/kg (n = 10)): 6 (60%) | Incidence of Adverse Events: Atrial fibrillation ([2]; 1.0 μg/kg (n = 10)): 0 | Incidence of Adverse Events: Atrial flutter ([2]; 1.0 μg/kg (n = 10)): 1 (10%) | Incidence of Adverse Events: Atrial tachycardia ([2]; 1.0 μg/kg (n = 10)): 0 | Incidence of Adverse Events: Bradycardia ([2]; 1.0 μg/kg (n = 10)): 0 | Incidence of Adverse Events: Cardiac Disorders ([2]; 1.0 μg/kg (n = 10)): 1 (10%) | Incidence of Adverse Events: Chest pain/tightness ([2]; 1.0 μg/kg (n = 10)): 0 | Incidence of Adverse Events: Conduction disorders ([2]; 1.0 μg/kg (n = 10)): 0 | Incidence of Adverse Events: General Disorders ([2]; 1.0 μg/kg (n = 10)): 1 (10%) | Incidence of Adverse Events: Groin pain/swelling ([2]; 1.0 μg/kg (n = 10)): 1 (10%) | Diastolic BP Change from Baseline Post-treatment ([2]; 1.0 μg/kg): 1.0 ± 5.6 mmHg | Diastolic BP Change from Baseline Treatment ([2]; 1.0 μg/kg): 3.3 ± 9.3 mmHg | Systolic BP Change from Baseline Post-treatment ([2]; 1.0 μg/kg): 1.4 ± 21.5 mmHg | Systolic BP Change from Baseline Treatment ([2]; 1.0 μg/kg): −0.1 ± 18.0 mmHg | Adverse Events Related to Study Drug: Cardiac Disorders (all) ([2]; 2.5 μg/kg (n = 8)): 0 | Adverse Events Related to Study Drug: General Disorders (all) ([2]; 2.5 μg/kg (n = 8)): 0 | Incidence of Adverse Events Related to Study Drug ([2]; 2.5 μg/kg (n = 8)): 0 | Incidence of Adverse Events: Any Adverse Event ([2]; 2.5 μg/kg (n = 8)): 3 (38%) | Incidence of Adverse Events: Atrial fibrillation ([2]; 2.5 μg/kg (n = 8)): 1 (13%) | Incidence of Adverse Events: Atrial flutter ([2]; 2.5 μg/kg (n = 8)): 0 | Incidence of Adverse Events: Atrial tachycardia ([2]; 2.5 μg/kg (n = 8)): 0 | Incidence of Adverse Events: Bradycardia ([2]; 2.5 μg/kg (n = 8)): 0 | Incidence of Adverse Events: Cardiac Disorders ([2]; 2.5 μg/kg (n = 8)): 1 (13%) | Incidence of Adverse Events: Chest pain/tightness ([2]; 2.5 μg/kg (n = 8)): 1 (13%) | Incidence of Adverse Events: Conduction disorders ([2]; 2.5 μg/kg (n = 8)): 0 | Incidence of Adverse Events: General Disorders ([2]; 2.5 μg/kg (n = 8)): 2 (25%) | Incidence of Adverse Events: Groin pain/swelling ([2]; 2.5 μg/kg (n = 8)): 0 | Diastolic BP Change from Baseline Post-treatment ([2]; 2.5 μg/kg): −1.6 ± 9.5 mmHg | Diastolic BP Change from Baseline Treatment ([2]; 2.5 μg/kg): 0.0 ± 8.4 mmHg | Systolic BP Change from Baseline Post-treatment ([2]; 2.5 μg/kg): 0.6 ± 9.0 mmHg | Systolic BP Change from Baseline Treatment ([2]; 2.5 μg/kg): 1.0 ± 6.2 mmHg | Adverse Events Related to Study Drug: Cardiac Disorders (all) ([2]; 4.0 μg/kg (n = 10)): 2 (20%) | Adverse Events Related to Study Drug: General Disorders (all) ([2]; 4.0 μg/kg (n = 10)): 0 | Incidence of Adverse Events Related to Study Drug ([2]; 4.0 μg/kg (n = 10)): 2 (20%) | Incidence of Adverse Events: Any Adverse Event ([2]; 4.0 μg/kg (n = 10)): 2 (20%) | Incidence of Adverse Events: Atrial fibrillation ([2]; 4.0 μg/kg (n = 10)): 2 (20%) | Incidence of Adverse Events: Atrial flutter ([2]; 4.0 μg/kg (n = 10)): 0 | Incidence of Adverse Events: Atrial tachycardia ([2]; 4.0 μg/kg (n = 10)): 0 | Incidence of Adverse Events: Bradycardia ([2]; 4.0 μg/kg (n = 10)): 0 | Incidence of Adverse Events: Cardiac Disorders ([2]; 4.0 μg/kg (n = 10)): 2 (20%) | Incidence of Adverse Events: Chest pain/tightness ([2]; 4.0 μg/kg (n = 10)): 0 | Incidence of Adverse Events: Conduction disorders ([2]; 4.0 μg/kg (n = 10)): 0 | Incidence of Adverse Events: General Disorders ([2]; 4.0 μg/kg (n = 10)): 0 | Incidence of Adverse Events: Groin pain/swelling ([2]; 4.0 μg/kg (n = 10)): 0 | Diastolic BP Change from Baseline Post-treatment ([2]; 4.0 μg/kg): 0.6 ± 10.5 mmHg | Diastolic BP Change from Baseline Treatment ([2]; 4.0 μg/kg): 3.3 ± 8.4 mmHg | Systolic BP Change from Baseline Post-treatment ([2]; 4.0 μg/kg): 5.2 ± 10.2 mmHg | Systolic BP Change from Baseline Treatment ([2]; 4.0 μg/kg): 3.8 ± 8.4 mmHg | Adverse Events Related to Study Drug: Cardiac Disorders (all) ([2]; 10.0 μg/kg (n = 12)): 6 (50%) | Adverse Events Related to Study Drug: General Disorders (all) ([2]; 10.0 μg/kg (n = 12)): 1 (8%) | Incidence of Adverse Events Related to Study Drug ([2]; 10.0 μg/kg (n = 12)): 7 (58%) | Incidence of Adverse Events: Any Adverse Event ([2]; 10.0 μg/kg (n = 12)): 8 (67%) | Incidence of Adverse Events: Atrial fibrillation ([2]; 10.0 μg/kg (n = 12)): 3 (25%) | Incidence of Adverse Events: Atrial flutter ([2]; 10.0 μg/kg (n = 12)): 1 (8%) | Incidence of Adverse Events: Atrial tachycardia ([2]; 10.0 μg/kg (n = 12)): 0 | Incidence of Adverse Events: Bradycardia ([2]; 10.0 μg/kg (n = 12)): 1 (8%) | Incidence of Adverse Events: Cardiac Disorders ([2]; 10.0 μg/kg (n = 12)): 6 (50%) | Incidence of Adverse Events: Chest pain/tightness ([2]; 10.0 μg/kg (n = 12)): 1 (8%) | Incidence of Adverse Events: Conduction disorders ([2]; 10.0 μg/kg (n = 12)): 1 (8%) | Incidence of Adverse Events: General Disorders ([2]; 10.0 μg/kg (n = 12)): 2 (17%) | Incidence of Adverse Events: Groin pain/swelling ([2]; 10.0 μg/kg (n = 12)): 0 | patients with severe adverse events ([2]; 10.0 μg/kg group): 1 patient | Diastolic BP Change from Baseline Post-treatment ([2]; 10.0 μg/kg): −7.2 ± 16.8 mmHg | Diastolic BP Change from Baseline Treatment ([2]; 10.0 μg/kg): −3.2 ± 11.2 mmHg | Systolic BP Change from Baseline Post-treatment ([2]; 10.0 μg/kg): −12.6 ± 20.4 mmHg | Systolic BP Change from Baseline Treatment ([2]; 10.0 μg/kg): −3.2 ± 13.5 mmHg | Adverse Events Related to Study Drug: Cardiac Disorders (all) ([2]; 25.0 μg/kg (n = 3)): 2 (66.7%) | Adverse Events Related to Study Drug: General Disorders (all) ([2]; 25.0 μg/kg (n = 3)): 3 (100%) | Incidence of Adverse Events Related to Study Drug ([2]; 25.0 μg/kg (n = 3)): 3 (100%) | Incidence of Adverse Events: Any Adverse Event ([2]; 25.0 μg/kg (n = 3)): 3 (100%) | Incidence of Adverse Events: Atrial fibrillation ([2]; 25.0 μg/kg (n = 3)): 1 (33%) | Incidence of Adverse Events: Atrial flutter ([2]; 25.0 μg/kg (n = 3)): 0 | Incidence of Adverse Events: Atrial tachycardia ([2]; 25.0 μg/kg (n = 3)): 1 (33%) | Incidence of Adverse Events: Bradycardia ([2]; 25.0 μg/kg (n = 3)): 1 (33%) | Incidence of Adverse Events: Cardiac Disorders ([2]; 25.0 μg/kg (n = 3)): 2 (66.7%) | Incidence of Adverse Events: Chest pain/tightness ([2]; 25.0 μg/kg (n = 3)): 3 (100%) | Incidence of Adverse Events: Conduction disorders ([2]; 25.0 μg/kg (n = 3)): 0 | Incidence of Adverse Events: General Disorders ([2]; 25.0 μg/kg (n = 3)): 3 (100%) | Incidence of Adverse Events: Groin pain/swelling ([2]; 25.0 μg/kg (n = 3)): 0 | patients with severe adverse events ([2]; 25.0 μg/kg group): 2 patients | patients who did not complete study drug infusion due to adverse events ([2]; 25.0 μg/kg group, chest pain, severe chest pain, chest tightness and atrial fibrillation): Three patients | Diastolic BP Change from Baseline Post-treatment ([2]; 25.0 μg/kg): 1.0 ± 8.0 mmHg | Diastolic BP Change from Baseline Treatment ([2]; 25.0 μg/kg): 7.5 ± 2.1 mmHg | Systolic BP Change from Baseline Post-treatment ([2]; 25.0 μg/kg): 6.7 ± 8.1 mmHg | Systolic BP Change from Baseline Treatment ([2]; 25.0 μg/kg): 23.0 ± 2.8 mmHg | changes in blood pressure or clinical laboratory values ([2]; any patient during the study): no clinically significant changes
